This passage reports IC50 results from patent EP3868759A1, “2,3,5-SUBSTITUTED PYRROLO[2,3-B]PYRIDINES AS ERBB MODULATORS USEFUL FOR TREATING CANCER” (PearlRiver Bio GmbH, priority 2020, dated 2021).

Molecules are shown by their SMILES.

In one assay the target is EGFR L858R (Homo sapiens, UniProt P00533, L858R). Briefly: Lance assay, EGFR L858R. The settings on record: biochemical Lance assay.
The next assay concerns EGFR vIII Ba/F3. In words: CellTiter-Glo cell viability, EGFR vIII Ba/F3. Format: cell-based. The settings on record: Mus musculus, BaF3, 72 h, read-out: EGFR vIII Ba/F3 CTG IC50 /. The method, boiled down:
(§1)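 Cells seeded and allowed 24 h at 37°C, 5% CO2 before compound addition in DMSO over a concentration range, then incubated 72 h. Viability read as ATP-based luminescence; IC50 from dose-response fit, DMSO and 10 µM staurosporine as controls, plates accepted at Z' ≥ 0.5.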

In another assay the test system is A431. Briefly: CellTiter-Glo cell viability, A431. It counts as cell-based. The settings on record: Homo sapiens, A-431, 72 h, read-out: A431 CTG IC50. The method, boiled down: as §1
A general note: In ATP-based viability assays light output follows the ATP content of the culture.

Another assay relates to H1975. Briefly: CellTiter-Glo cell viability, H1975. It counts as cell-based. The settings on record: Homo sapiens, NCI-H1975, 72 h, read-out: H1975 CTG IC50. The protocol: (§2) The CellTiter-Glo Luminescent Cell Viability Assay (Promega) is a homogeneous method of determining the number of viable cells in culture. It is based on quantification of ATP, indicating the presence of metabolically active cells. Cells are seeded on day 1 at cell numbers that assure assay linearity and optimal signal intensity. After incubation for 24h in humidified chambers at 37°C and 5% CO2, compounds in DMSO are added at different concentrations. Cells are further incubated for 72 h at 37°C and 5% CO2. Cells treated with the compound vehicle DMSO are used as positive controls and cells treated with 10 µM Staurosporine serve as negative controls. At day 5 the CellTiter Glo Reagent is prepared according to the instructions of the kit (Promega Inc.): Reagent is mixed 1:1 with cell culture medium. Thereon, mixture and assay plates are equilibrated at room temperature for 20 min. Equal volumes of the reagent-medium-mixture is added to the volume of culture medium present in each well. The plates are mixed at ∼200 rpm for 2 minutes on an orbital shaker. The microplates are then incubated at room temperature for 10 minutes for stabilization of the luminescent signal. Following incubation the luminescence is recorded on a Victor microplate reader (Perkin Elmer) using a 200 ms integration time. The data is then analyzed with Excel using the XLFIT Plugin (dose response Fit 205) for IC50-determination. As quality control the Z'-factor is calculated from 16 positive and negative control values. Only assay results showing a Z'-factor ≥ 0.5 are used for further analysis.

For the next assay, the system named is Cuto-17. Briefly: CellTiter-Glo cell viability, Cuto-17. The settings on record: CUTO17, 72 h, read-out: Cuto-17 CTG IC50. Format: cell-based. The protocol: as §2
Another assay concerns the target EGFR (del746-750) (Homo sapiens, UniProt P00533, DEL746-750). Briefly: Lance assay, EGFR (del746-750). The settings on record: biochemical Lance assay.
For assay [1], the system named is Her2 Exon 20 InsYVMA Ba/F3. Briefly: CellTiter-Glo cell viability, Her2 Exon 20 InsYVMA Ba/F3. Format: cell-based. The settings on record: Mus musculus, BaF3, 72 h, read-out: Her2 Exon 20 InsYVMA Ba/F3 CTG IC50. The method, boiled down: as §1
The next assay has as its target EGFR T790M L858R (Homo sapiens, UniProt P00533, L858R/T790M). Briefly: Lance assay, EGFR T790M L858R. The settings on record: biochemical Lance assay.
In another assay the target is T1, HER2 INS YVMA (Homo sapiens, UniProt P04626, INS775YVMA).
T1 construct: purchased DPF
T1 sequence (P04626 with tags, fused parts or gaps INS775YVMA): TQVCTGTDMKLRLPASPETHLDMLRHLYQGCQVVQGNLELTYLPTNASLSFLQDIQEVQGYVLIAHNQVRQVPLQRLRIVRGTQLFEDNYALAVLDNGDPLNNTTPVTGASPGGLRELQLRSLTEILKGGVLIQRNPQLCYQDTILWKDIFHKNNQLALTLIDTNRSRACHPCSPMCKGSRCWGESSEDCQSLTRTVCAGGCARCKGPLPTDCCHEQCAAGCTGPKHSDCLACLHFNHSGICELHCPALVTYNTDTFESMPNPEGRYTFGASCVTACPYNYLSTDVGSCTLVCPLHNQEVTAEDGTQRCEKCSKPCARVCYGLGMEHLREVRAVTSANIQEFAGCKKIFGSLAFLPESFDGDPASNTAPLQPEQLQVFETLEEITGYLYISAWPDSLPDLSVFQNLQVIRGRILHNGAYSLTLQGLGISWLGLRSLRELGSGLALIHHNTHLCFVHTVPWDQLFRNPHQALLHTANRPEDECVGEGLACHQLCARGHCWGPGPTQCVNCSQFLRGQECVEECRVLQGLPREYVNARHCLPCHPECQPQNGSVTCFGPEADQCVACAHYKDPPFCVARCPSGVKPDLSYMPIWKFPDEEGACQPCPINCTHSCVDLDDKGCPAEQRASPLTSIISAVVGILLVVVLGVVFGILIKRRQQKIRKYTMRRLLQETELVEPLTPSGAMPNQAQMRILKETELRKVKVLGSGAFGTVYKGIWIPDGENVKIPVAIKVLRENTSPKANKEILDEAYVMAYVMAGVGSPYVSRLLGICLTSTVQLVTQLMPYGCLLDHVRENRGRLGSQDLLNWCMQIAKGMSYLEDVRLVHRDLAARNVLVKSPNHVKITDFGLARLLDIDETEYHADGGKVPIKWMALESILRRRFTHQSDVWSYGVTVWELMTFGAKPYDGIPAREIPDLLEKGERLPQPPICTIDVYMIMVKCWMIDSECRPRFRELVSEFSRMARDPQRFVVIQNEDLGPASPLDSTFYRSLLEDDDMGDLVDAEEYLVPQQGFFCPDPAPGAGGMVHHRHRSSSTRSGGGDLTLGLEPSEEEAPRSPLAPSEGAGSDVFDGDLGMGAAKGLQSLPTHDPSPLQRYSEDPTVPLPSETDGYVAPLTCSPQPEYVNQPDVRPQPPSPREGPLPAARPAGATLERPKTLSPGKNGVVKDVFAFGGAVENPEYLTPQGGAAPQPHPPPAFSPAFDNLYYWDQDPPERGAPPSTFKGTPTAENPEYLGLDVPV
In words: Lance Kinase Activity Assay, Her2 Exon 20 InsYVMA. The settings on record: biochemical Lance assay. The method, boiled down: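 TR-FRET (LANCE) assay: HER2 ex20 YVMA kinase phosphorylates ULight-peptide; compounds in 8-point 1:3 dilutions from 10 mM DMSO stock; ATP-started, 1 h at room temperature, stopped with EDTA plus Eu-anti-phosphopeptide antibody, 1 h more. Read 665/615 nm emission; IC50 from sigmoidal dose-response curves.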

Another assay relates to EGFR L858R T790M Ba/F3. In words: CellTiter-Glo cell viability, EGFR L858R T790M Ba/F3. Format: cell-based. The settings on record: Mus musculus, BaF3, 72 h, read-out: EGFR L858R T790M Ba/F3 CTG IC50 /. Here is the method: as §2
A further assay addresses EGFR wt (Homo sapiens, UniProt P00533). Briefly: Lance assay, EGFR wt. The settings on record: biochemical Lance assay.
The subject of another assay is EGFR L858R Ba/F3. Briefly: CellTiter-Glo cell viability, EGFR L858R Ba/F3. It counts as cell-based. The settings on record: Mus musculus, BaF3, 72 h, read-out: EGFR L858R Ba/F3 CTG IC50 /. Here is the method:
as §2

Assay [2] relates to EGFR Exon 20 InsNPH Ba/F3. Briefly: CellTiter-Glo cell viability, EGFR Exon 20 InsNPH Ba/F3. Format: cell-based. The settings on record: Mus musculus, BaF3, 72 h, read-out: EGFR Exon 20 InsNPH Ba/F3 CTG IC50. The method, boiled down:
as §1

Chain of EGFR wt (P00533 25-1210): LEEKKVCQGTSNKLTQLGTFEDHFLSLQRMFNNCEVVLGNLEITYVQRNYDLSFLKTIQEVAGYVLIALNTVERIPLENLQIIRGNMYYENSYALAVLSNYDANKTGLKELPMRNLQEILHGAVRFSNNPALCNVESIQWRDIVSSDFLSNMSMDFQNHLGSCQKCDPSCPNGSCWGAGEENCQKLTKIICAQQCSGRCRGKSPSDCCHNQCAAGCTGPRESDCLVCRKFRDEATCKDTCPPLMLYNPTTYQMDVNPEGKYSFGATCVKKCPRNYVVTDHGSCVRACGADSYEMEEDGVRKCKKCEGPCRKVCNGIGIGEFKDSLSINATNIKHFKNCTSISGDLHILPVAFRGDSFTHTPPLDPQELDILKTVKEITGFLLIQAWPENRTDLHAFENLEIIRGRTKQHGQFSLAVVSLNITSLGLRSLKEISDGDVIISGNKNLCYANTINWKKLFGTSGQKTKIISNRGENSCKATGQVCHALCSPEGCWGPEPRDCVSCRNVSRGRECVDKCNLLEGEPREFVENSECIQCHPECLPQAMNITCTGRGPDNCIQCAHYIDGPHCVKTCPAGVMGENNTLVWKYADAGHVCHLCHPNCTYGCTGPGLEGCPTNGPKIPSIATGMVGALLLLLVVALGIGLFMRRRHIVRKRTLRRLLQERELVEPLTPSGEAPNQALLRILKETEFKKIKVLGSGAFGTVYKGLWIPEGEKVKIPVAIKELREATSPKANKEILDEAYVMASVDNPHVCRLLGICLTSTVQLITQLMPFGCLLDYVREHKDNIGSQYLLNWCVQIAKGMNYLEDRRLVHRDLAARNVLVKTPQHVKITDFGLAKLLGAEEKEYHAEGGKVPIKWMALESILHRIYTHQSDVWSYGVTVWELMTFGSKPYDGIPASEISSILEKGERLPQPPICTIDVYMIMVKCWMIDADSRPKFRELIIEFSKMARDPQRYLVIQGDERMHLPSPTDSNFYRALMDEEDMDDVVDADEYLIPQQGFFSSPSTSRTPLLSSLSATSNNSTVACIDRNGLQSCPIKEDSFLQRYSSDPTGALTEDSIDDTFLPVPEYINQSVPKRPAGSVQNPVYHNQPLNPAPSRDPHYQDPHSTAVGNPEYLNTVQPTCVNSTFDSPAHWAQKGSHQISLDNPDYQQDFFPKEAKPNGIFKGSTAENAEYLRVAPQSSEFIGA
Chain of EGFR T790M L858R (P00533 25-1210 T790M/L858R): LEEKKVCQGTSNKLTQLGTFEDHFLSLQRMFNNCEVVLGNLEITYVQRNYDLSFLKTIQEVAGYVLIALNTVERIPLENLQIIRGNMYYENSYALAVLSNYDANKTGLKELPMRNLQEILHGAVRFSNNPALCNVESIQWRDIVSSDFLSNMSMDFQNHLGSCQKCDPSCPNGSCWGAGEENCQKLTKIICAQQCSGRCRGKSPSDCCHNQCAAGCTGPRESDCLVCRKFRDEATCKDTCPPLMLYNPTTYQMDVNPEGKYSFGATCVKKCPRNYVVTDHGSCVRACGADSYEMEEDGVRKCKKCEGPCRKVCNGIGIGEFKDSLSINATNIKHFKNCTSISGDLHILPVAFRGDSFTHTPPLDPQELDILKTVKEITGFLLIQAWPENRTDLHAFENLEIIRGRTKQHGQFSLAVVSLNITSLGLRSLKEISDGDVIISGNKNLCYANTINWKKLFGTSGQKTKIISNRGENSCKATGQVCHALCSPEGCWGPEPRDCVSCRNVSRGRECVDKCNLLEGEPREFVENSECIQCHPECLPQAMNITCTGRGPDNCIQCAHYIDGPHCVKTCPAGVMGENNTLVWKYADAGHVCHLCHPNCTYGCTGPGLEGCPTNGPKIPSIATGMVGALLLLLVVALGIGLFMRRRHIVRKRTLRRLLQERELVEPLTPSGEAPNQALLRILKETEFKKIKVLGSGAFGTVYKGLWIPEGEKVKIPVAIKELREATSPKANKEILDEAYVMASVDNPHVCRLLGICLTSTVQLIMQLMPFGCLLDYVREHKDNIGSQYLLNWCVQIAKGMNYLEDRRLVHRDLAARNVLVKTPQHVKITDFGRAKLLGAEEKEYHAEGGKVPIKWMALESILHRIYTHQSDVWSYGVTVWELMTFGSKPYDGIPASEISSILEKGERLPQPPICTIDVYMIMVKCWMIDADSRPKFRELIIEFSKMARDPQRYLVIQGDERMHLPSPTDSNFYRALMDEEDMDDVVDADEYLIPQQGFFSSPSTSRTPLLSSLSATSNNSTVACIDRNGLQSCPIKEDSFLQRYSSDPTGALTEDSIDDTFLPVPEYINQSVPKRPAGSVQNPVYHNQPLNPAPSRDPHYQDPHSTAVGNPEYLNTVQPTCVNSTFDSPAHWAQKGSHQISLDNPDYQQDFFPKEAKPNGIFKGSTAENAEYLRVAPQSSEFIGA
Chain of EGFR L858R (P00533 25-1210 L858R): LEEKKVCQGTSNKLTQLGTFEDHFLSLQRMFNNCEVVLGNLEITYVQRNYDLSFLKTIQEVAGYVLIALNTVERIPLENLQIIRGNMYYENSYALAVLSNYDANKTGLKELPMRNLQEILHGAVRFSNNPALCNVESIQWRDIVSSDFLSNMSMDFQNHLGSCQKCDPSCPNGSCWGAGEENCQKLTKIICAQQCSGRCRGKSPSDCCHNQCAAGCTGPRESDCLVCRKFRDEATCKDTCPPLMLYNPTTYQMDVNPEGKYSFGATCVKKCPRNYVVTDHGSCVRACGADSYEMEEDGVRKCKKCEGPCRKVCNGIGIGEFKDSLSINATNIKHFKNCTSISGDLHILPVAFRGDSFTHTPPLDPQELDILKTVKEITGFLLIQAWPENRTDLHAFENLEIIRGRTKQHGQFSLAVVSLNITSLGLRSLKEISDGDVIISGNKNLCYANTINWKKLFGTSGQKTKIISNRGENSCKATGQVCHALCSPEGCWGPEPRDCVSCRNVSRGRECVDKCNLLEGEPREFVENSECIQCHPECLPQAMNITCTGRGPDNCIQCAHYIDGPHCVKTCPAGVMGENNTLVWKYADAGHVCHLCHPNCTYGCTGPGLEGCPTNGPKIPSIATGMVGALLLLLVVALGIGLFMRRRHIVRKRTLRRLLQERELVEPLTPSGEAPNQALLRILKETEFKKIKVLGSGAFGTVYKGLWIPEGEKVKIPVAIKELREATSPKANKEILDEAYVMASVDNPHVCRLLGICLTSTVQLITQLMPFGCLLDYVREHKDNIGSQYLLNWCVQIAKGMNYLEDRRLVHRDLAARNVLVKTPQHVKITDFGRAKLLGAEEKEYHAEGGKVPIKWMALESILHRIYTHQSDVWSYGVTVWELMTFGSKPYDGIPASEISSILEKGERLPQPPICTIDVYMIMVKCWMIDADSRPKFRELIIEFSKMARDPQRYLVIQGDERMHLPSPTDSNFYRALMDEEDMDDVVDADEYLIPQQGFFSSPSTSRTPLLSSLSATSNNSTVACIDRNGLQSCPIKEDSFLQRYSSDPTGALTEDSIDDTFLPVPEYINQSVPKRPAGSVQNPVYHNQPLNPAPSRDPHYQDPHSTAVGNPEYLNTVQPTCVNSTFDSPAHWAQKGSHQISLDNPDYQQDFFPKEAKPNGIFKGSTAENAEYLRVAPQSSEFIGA

As to `C=CC(=O)Nc1cc(-c2c(-c3cnn(CC)c3)[nH]c3ncc(C(=O)OC(C)C)cc23)cc(F)c1C` [Example 5, isopropyl 3-(3-acrylamido-5-fluoro-4-methylphenyl)-2-(1-ethyl-1 H-pyrazol-4-yl)-1H-pyrrolo[2,3-b]pyridine-5-carboxylate], the IC50 against EGFR L858R is at most 50 nM; in the assay with EGFR vIII Ba/F3, 100 to 500 nM; in the assay on A431 it was 1000 to 10000 nM; in the assay on H1975, 500 to 1000 nM; in the assay with Cuto-17, 100 to 500 nM; on EGFR (del746-750) it was at most 50 nM. For the same compound, the IC50 in assay [1] was 50 to 100 nM; on EGFR T790M L858R, at most 50 nM; against HER2 INS YVMA it was 50 to 100 nM; with EGFR L858R T790M Ba/F3, at most 50 nM; against EGFR wt it was at most 50 nM; with EGFR L858R Ba/F3, at most 50 nM. Also, the IC50 in assay [2] fell in the range of 50 to 100 nM.

As to `C=CC(=O)Nc1cc(-c2c(-c3cnn(C)c3)[nH]c3ncc(OCC(C)C)cc23)ccc1C` [Example 4, N-(5-(5-isobutoxy-2-(1-methyl-1H-pyrazol-4-yl)-1H-pyrrolo[2,3-b]pyridin-3-yl)-2-methylphenyl)acrylamide 2,2,2-trifluoroacetate], the IC50 was at most 50 nM against EGFR L858R; at most 50 nM with EGFR vIII Ba/F3; 1000 to 10000 nM in the assay on A431; 100 to 500 nM in the assay on H1975; 100 to 500 nM in the assay with Cuto-17; at most 50 nM at EGFR (del746-750). Further, the IC50 is 100 to 500 nM in [1]; 50 to 100 nM on EGFR T790M L858R; 50 to 100 nM on HER2 INS YVMA; at most 50 nM in the assay on EGFR L858R T790M Ba/F3; at most 50 nM at EGFR wt; at most 50 nM in the assay with EGFR L858R Ba/F3. Besides, the IC50 in [2] was 100 to 500 nM.

For `C=CC(=O)Nc1cc(-c2c(-c3cnn(C)c3)[nH]c3ncc(C(=O)OC(C)C)c(C)c23)ccc1C` [Example 7, isopropyl 3-(3-acrylamido-4-methylphenyl)-4-methyl-2-(1-methyl-1H-pyrazol-4-yl)-1H-pyrrolo[2,3-b]pyridine-5-carboxylate2,2,2-trifluoroacetate], the IC50 against EGFR L858R was at most 50 nM; in the assay on EGFR vIII Ba/F3 it was 50 to 100 nM; in the assay on A431, 1000 to 10000 nM; in the assay with H1975, 100 to 500 nM; in the assay on Cuto-17, 100 to 500 nM; against EGFR (del746-750) it was at most 50 nM. In addition, the IC50 is 100 to 500 nM in assay [1]; at most 50 nM against EGFR T790M L858R; 100 to 500 nM against HER2 INS YVMA; 50 to 100 nM with EGFR L858R T790M Ba/F3; at most 50 nM on EGFR wt; at most 50 nM with EGFR L858R Ba/F3. Also, the IC50 in assay [2] is 50 to 100 nM.

Regarding `C=CC(=O)Nc1cc(-c2c(-c3cnn(CCN(C)C)c3)[nH]c3ncc(C(=O)OC(C)C)c(C)c23)ccc1C` [Example 15, isopropyl 3-(3-acrylamido-4-methylphenyl)-2-(1-(2-(dimethylamino)ethyl)-1 H-pyrazol-4-yl)-4-methyl-1 H-pyrrolo[2,3-b]pyridine-5-carboxylate], the IC50 is at most 50 nM against EGFR L858R; 50 to 100 nM with EGFR vIII Ba/F3; 1000 to 10000 nM in the assay on A431; 100 to 500 nM in the assay with H1975; 100 to 500 nM with Cuto-17; at most 50 nM on EGFR (del746-750). The IC50 in assay [1] is 100 to 500 nM; at EGFR T790M L858R, at most 50 nM; at HER2 INS YVMA, at most 50 nM; in the assay on EGFR L858R T790M Ba/F3 it was at most 50 nM; against EGFR wt it was at most 50 nM; in the assay on EGFR L858R Ba/F3, at most 50 nM. Further, the IC50 in assay [2] was in the range of 50 to 100 nM.

Consider `C=CC(=O)Nc1cc(-c2c(-c3cnn(C)c3)[nH]c3ncc(C(=O)OC(C)C)cc23)ccc1C` [Example 1, Isopropyl 3-(3-acrylamido-4-methylphenyl)-2-(1-methyl-1H-pyrazol-4-yl)-1H-pyrrolo[2,3-b]pyridine-5-carboxylate 2,2,2-trifluoroacetate], for which the IC50 against EGFR L858R is at most 50 nM; with EGFR vIII Ba/F3, 100 to 500 nM; in the assay with A431 it was 1000 to 10000 nM; in the assay with H1975 it was 500 to 1000 nM; in the assay with Cuto-17, 500 to 1000 nM; against EGFR (del746-750), at most 50 nM. Also, the IC50 was 100 to 500 nM in assay [1]; at most 50 nM against EGFR T790M L858R; 50 to 100 nM against HER2 INS YVMA; at most 50 nM with EGFR L858R T790M Ba/F3; at most 50 nM on EGFR wt; at most 50 nM in the assay on EGFR L858R Ba/F3. Further, the IC50 in assay [2] is 100 to 500 nM.
